The results in this text go back to patent US20110039779A1, “IGF-1R BINDING PROTEINS AND ANTAGONISTS” (priority 2007, published 2011).

For one assay, the system named is IRS-1. The experiment in a line: downstream signaling: IRS-1 tyrosine phosphorylation. Conditions: for IC50: L6 cells, 3 nM IGF-1, read-out: IRS-1, IC50 for down regulation of the stimulation to the basal level. In kind it is cell-based. The procedure:
(§1) The tyrosine phosphorylation of IRS signaling (the 180 kDa band on a tyrosine phosphor Western blot) as well as activation of effectors MAPK 44 and 42 and PKB were analyzed by using antibodies specific for their active forms using methods substantially similar to those described in Example 14 of the '246 PCT application.
(§2) The effect of select peptides on downstream signaling (MAPK44, MAPK42, PKB/Akt, IRS-1, and IGF-1R) was also measured by studying the signaling in L6 cells predominantly expressing IGF-1R and very limited insulin receptors. […] The antagonistic effect of the peptides can be seen to affect all the downstream signaling from the IGF-1R.

In the next assay the target is MCF7 cells (Homo sapiens, UniProt P08069). The experiment in a line: antagonism assay in starved MCF7 cells, luminescence viability, 72 hrs. In kind it is cell-based. Conditions: Table 9. The procedure: Additional binding and antagonism assays using candidate peptides were performed. […] Cell viability was determined by luminescence assay and IC50 was calculated using standard techniques.
Chain of MCF7 cells (P08069 31-736): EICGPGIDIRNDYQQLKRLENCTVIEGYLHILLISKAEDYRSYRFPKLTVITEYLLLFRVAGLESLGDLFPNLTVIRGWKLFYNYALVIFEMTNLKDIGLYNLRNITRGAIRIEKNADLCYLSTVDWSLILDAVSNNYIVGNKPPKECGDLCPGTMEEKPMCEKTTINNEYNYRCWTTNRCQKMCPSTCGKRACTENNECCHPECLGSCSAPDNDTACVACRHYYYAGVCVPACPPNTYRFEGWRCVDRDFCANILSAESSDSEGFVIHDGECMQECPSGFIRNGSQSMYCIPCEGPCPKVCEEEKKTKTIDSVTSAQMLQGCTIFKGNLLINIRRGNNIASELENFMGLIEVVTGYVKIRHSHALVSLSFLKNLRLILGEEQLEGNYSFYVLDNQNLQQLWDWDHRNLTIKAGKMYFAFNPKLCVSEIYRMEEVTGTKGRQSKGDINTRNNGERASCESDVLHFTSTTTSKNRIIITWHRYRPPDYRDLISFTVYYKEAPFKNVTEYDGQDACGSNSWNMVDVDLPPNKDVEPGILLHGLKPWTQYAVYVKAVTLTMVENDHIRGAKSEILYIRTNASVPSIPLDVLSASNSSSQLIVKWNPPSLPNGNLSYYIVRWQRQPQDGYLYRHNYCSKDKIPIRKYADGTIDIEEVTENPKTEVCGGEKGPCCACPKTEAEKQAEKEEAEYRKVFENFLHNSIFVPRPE

In the next assay the test system is IGF-IR. The experiment in a line: downstream signaling in L6 cells: IGF-IR. In kind it is cell-based. The note with it: 3 nM IGF-1, read-out: IGF-IR, IC50 for down regulation of the stimulation to the basal level. The protocol:
as §1, §2

Assay [1] relates to MiaPaCa cells. The experiment in a line: gene expression changes in MiaPaCa cells (gene arrays). In kind it is cell-based, human. Conditions: IGF-1 (25 ng/ml) +/− ANT-429, 24 hours.
The next assay has as its system MAPK44. The experiment in a line: downstream signaling in L6 cells: MAPK44. In kind it is cell-based. The note with it: 3 nM IGF-1, read-out: MAPK44, IC50 for down regulation of the stimulation to the basal level. The protocol:
as §1, §2

Another assay concerns PKB/Akt. The experiment in a line: downstream signaling in L6 cells: PKB/Akt. In kind it is cell-based. Conditions: 3 nM IGF-1, read-out: PKB/Akt, IC50 for down regulation of the stimulation to the basal level. The protocol: as §1, §2
Assay [2] concerns MiaPaCa cells. Put plainly: MiaPaCa tumor growth inhibition in nude mice. In kind it is in vivo. The protocol: Nude mice were inoculated with MiaPaCa cells (one million cells in matrigel) on the flank and followed until tumors reached a volume of greater than 100 mm^3. […] Animals were injected by the subcutaneous route 4 times per week for 3 weeks and followed for an additional 2 weeks without injections. Tumors were measured twice weekly. Animals were sacrificed and the tumors excised, weighed and photographed.

A further assay deals with SW480 cells. Format: cell-based. Conditions: for IC50: read-out: IC50, inhibition of IGF-1 (10 nM)-induced proliferation of SW480 cells. The procedure:
For cell growth/density studies, a mitochondrial activity assay was used, as exemplified by the following. Cells (SW480, MCF-7S8) were propagated in complete medium (DME: F12, 10% FCS (SW 480) or 5% FCS (MCF-7S8, P/S)), trypsinized, and seeded in 96 well plates as 10,000 cells/well in medium with 0.5% FCS. All wells in the periphery were omitted and only filled with medium. […] All treatments are made in triplicates. […] Treatment was continued for 48 hours (SW480 cells) or 72 hours (MCF-7S8 cells) before quantification of the cell density. Media was exchanged each day. Media and peptides were diluted in DMSO. When measuring cell density, the volume of each well was adjusted to […] Pre-diluted WST-1 (1 ml+1.5 ml DME:F12) was added as 25 μL to each well including background samples. Three wells with media only served as background controls. The cells were incubated for 90 min protected against light in an incubator.

Another assay deals with MAPK42. Put plainly: downstream signaling in L6 cells: MAPK42. In kind it is cell-based. Conditions: 3 nM IGF-1, read-out: MAPK42, IC50 for down regulation of the stimulation to the basal level. The protocol: as §1, §2
Assay [3] addresses human insulin receptor (HIR) (Homo sapiens, UniProt P06213). The experiment in a line: human insulin receptor (HIR) affinity. In kind it is binding. The note with it: printed in brackets under the HIR affinity, not explained. The protocol:
IGF-1R affinity studies were generally performed as follows. […] HIGF-1R was purified from a cell culture of BHK cells stably transfected with IGF-1R cDNA. The day before harvest cells were moved to serum free conditions and before harvest the cells were rinsed with and ice cold PBS solution. The cells were solubilized in cold lysis buffer (4 ml lysis buffer/1×10^8 cells); vortexed vigorously to lysis in lysis buffer (50 mM Hepes (pH 8.0); 150 mM NaCl; 1% Triton X-100; 2 mM EDTA; 10 μg/mlaprotinin; 0.5 mM PEFABLOC (Roche)); and the lysate centrifuged at 4° C., 20000 rpm, for 15 minutes. The HIGF-1R portion was absorbed to WGA-agarose beads and subjected to chromatography purification (Pharmacia biotech No 17-0760-01) (column washed with 20× column volumes wash buffer −50 mM Hepes (pH 8.0); 150 mM NaCl; 0.1% Triton X-100; 0.5 mM PEFABLOC (Roche)). The HIGF-1R portion was then eluted with 0.5 M n-Acetyl Glycosamine (NAG), 10% Glycerol in elution buffer (50 mM Hepes (pH 8.0); 150 mM NaCl; 0.1% Triton X-100; 0.5 mM PEFABLOC (Roche); 0.5 M n-acetyl glucosamine; 10% glycerol). […] After equilibration for 2 days at 4° C., each sample (200 μl) typically was precipitated by addition of 400 μl 25% PEG 6000, centrifuged, washed with 1 ml 15% PEG 6000, and counted in a gamma-counter. In some cases, human insulin receptor (HIR) affinity for select test peptides was similarly measured.

Assay [4] relates to SGBS adipocytes transfected with HIR-encoding DNA. Put plainly: 3H glucose incorporation (insulin agonist activity) in SGBS adipocytes. Format: cell-based. The procedure: Insulin increases uptake of ^3H glucose into adipocytes and its conversion into lipid. Incorporation of ^3H into the lipid phase was determined by partitioning of lipid phase into a scintillant mixture, which excludes water-soluble ^3H products. […] The results are expressed as increase relative to full insulin response.

Assay [5] addresses T1, IGF-1R on L6 (with mainly symmetric IGF-1R) (Rattus norvegicus, UniProt P24062).
T1 construct: L6 cells predominantly expressing IGF-1R and very limited insulin receptors; endogenous in cells; host or cells: L6 cells
The experiment in a line: displacement of IGF-1 binding on L6 cells.

Another assay relates to insulin receptor/IGF-1R. The experiment in a line: tyrosine phosphorylation of insulin receptor/IGF-1R in L6-hIR cells (Western blot). In kind it is cell-based. In general terms: Immunoblotting shows a protein as a band on a membrane.
The target of the next assay is T2, HIGF-1R (Homo sapiens, UniProt P08069).
T2 construct: HIGF-1R was purified from a cell culture of BHK cells stably transfected with IGF-1R cDNA; made in house; host or cells: BHK cells stably transfected with IGF-1R cDNA
T2 sequence (P08069 31-736 limits assumed): as the sequence (P08069 31-736) above
T2 sequence (P08069 741-1367 limits assumed): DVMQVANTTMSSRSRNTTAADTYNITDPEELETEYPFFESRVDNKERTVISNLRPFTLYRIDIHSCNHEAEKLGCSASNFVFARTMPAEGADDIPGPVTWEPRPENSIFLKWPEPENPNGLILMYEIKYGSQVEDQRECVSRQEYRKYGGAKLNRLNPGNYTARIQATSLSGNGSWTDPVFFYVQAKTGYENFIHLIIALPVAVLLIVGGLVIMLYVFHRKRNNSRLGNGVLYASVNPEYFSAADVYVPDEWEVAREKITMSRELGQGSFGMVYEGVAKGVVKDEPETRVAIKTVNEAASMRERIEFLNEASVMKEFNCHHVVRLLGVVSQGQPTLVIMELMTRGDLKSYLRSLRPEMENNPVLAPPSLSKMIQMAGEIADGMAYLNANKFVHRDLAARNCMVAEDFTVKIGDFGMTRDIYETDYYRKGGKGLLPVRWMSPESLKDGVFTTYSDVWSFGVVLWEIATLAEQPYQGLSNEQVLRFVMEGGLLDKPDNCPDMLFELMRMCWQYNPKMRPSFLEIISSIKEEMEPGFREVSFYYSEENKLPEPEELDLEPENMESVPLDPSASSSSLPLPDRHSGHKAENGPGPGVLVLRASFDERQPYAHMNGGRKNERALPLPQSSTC
The experiment in a line: IGF-1R affinity, scintillation proximity assay (SPA assay), 125I-IGF1 displacement. In kind it is binding. From the text:
In certain cases, a scintillation proximity assay (SPA assay) was used to determine IGF-1R affinity.

Read-outs that look alike come from different tables or passages of the source. Where a SMILES comes first, the peptide text is derived from it. Bounds are passed on as bounds.

As usually defined, the Kd is the free concentration of one partner at which half of the binding sites on the other are occupied at equilibrium, for simple one-to-one binding. Higher therefore signals a looser complex.

Chain of human insulin receptor (HIR) (P06213 28-758 limits assumed): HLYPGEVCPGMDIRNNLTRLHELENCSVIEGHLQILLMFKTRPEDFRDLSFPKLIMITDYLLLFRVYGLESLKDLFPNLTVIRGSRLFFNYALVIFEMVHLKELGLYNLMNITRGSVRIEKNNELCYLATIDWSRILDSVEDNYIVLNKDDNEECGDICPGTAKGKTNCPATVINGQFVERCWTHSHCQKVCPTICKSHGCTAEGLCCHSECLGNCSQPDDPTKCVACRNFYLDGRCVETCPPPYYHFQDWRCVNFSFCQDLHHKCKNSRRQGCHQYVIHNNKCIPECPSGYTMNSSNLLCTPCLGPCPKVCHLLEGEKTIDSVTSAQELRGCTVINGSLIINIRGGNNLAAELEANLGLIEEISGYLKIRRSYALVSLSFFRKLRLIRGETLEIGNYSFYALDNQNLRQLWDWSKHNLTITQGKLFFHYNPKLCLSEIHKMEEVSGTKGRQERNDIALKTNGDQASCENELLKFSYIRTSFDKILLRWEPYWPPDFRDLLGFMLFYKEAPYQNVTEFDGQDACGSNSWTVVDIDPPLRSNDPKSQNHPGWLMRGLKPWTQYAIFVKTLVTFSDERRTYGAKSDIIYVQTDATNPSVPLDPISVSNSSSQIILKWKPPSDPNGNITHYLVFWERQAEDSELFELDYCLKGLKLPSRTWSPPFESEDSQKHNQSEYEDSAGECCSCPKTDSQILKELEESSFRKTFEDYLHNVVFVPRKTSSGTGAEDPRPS
Chain of human insulin receptor (HIR) (P06213 763-1382 limits assumed): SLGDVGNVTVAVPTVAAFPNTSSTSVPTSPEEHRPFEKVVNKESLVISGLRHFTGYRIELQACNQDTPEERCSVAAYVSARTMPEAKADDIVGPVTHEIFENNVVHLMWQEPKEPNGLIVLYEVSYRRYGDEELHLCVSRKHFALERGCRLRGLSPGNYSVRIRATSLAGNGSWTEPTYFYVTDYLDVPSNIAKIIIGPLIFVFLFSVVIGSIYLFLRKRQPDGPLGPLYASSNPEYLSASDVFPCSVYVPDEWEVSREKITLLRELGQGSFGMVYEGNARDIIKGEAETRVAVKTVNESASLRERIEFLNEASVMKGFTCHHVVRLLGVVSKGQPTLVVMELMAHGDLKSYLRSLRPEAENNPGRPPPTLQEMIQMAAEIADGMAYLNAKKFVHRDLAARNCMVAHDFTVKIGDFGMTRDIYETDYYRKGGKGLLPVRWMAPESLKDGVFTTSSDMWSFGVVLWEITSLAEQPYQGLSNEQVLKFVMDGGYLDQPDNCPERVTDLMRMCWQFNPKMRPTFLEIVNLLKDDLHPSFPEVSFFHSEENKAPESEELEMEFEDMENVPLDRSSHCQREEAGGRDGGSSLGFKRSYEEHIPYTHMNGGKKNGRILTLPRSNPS
T1 sequence (P24062 31-737 limits assumed): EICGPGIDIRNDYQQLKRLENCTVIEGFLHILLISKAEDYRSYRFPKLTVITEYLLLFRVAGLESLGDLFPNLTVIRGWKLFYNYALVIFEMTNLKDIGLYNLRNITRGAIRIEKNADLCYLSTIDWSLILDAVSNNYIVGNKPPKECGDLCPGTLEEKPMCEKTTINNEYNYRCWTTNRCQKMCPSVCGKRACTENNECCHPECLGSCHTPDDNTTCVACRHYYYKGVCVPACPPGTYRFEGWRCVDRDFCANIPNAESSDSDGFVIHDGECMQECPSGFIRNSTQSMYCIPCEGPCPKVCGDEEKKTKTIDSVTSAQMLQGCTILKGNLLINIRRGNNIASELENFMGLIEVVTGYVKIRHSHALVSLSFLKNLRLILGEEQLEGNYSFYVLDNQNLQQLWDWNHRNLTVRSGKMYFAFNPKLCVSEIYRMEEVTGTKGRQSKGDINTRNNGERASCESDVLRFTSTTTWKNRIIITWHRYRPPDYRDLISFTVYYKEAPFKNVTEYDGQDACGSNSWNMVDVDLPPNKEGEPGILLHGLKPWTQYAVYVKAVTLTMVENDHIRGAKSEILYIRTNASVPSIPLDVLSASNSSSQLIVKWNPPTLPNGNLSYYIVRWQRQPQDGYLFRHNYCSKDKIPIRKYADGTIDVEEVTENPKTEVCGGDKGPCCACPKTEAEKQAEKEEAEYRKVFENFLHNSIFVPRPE
T1 sequence (P24062 742-1370 limits assumed): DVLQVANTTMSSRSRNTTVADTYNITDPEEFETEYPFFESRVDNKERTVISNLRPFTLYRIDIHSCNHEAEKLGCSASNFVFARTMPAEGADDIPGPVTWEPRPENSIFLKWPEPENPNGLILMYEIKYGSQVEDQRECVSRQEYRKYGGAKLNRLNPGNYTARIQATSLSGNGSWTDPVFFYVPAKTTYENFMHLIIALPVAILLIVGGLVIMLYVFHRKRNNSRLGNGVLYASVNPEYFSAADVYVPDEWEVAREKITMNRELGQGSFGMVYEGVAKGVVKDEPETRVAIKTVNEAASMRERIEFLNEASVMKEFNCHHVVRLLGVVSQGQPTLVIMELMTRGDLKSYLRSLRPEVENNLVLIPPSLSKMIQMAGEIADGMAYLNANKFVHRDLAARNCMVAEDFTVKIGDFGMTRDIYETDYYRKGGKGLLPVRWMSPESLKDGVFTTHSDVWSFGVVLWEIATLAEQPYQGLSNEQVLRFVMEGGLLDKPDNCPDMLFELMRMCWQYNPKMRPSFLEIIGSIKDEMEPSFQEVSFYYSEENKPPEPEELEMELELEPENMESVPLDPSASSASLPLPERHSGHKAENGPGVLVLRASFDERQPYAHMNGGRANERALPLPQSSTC

Regarding “DFYGCLLDLSLGVPSLGWRRRCITA [Peptide F429]”, in the assay with IRS-1 (+/−3 nM IGF-1, FIG. 7 and FIG. 8), the “potency for inhibiting down stream signaling through IRS-1 upon IGF-1 stimulation” value is listed as “potency of F429 is higher than F138”. The IC50 in the assay with IRS-1 worked out at 40 nM; with IGF-IR, 50 nM; in the assay on MAPK44, 100 nM; in the assay on PKB/Akt, 100 nM; in the assay on SW480 cells (experiment 13717-019), 500 nM; in the assay with SW480 cells (experiment 13717-027), 1000 nM. In addition, in the assay with MAPK42, the IC50 is 300 nM. On MCF7 cells, the Activity result is listed as “Antagonist”. Moreover, the “changes in apoptosis gene expression” value in the assay on MiaPaCa cells [1] is recorded as “modulate apoptosis genes”. The “complete remission, animals” value with MiaPaCa cells [2] ([…] (50 ug/injection)) is recorded as “one”; with MiaPaCa cells [2] (group printed as 15 mg/kg, subcutaneous 4 times per week for 3 weeks), “one”. In the assay with MiaPaCa cells [2] ([…] (50 ug/injection), subcutaneous 4 times per week for 3 weeks), the “animals responding to treatment” value is recorded as “Two out of five”. Further, the tumor growth result in the assay on MiaPaCa cells [2] (group printed as 15 mg/kg (design: 300 ug/injection, 12 mg/kg), subcutaneous 4 times per week for 3 weeks) is listed as “significant inhibition of growth”.
Consider “QFYGCLLDLSLGVPSFGWRRRCITA [Peptide F138]”, for which the IC50 in the assay on IRS-1 and with MAPK42 was 300 nM throughout. Besides, the “HIR affinity, value in brackets” value in [3] is on record as “(0.013%)”. Also, the “effect on glucose uptake induced by insulin or IGF-1” value in assay [4] (SGBS adipocytes, FIGS. 1A and 1B) is recorded as “neither peptide F138 nor peptide F293 has any substantial effect on glucose uptake induced by insulin or IGF-1”. Also, the “doses not affecting glucose uptake in response to insulin/IGF-1” value in assay [4] (SGBS cells) is less than 5 µM. Besides, the “concentration displacing IGF-1 binding to IGF-1R on L6” value in [5] was 100 nM. The “inhibition of IGF-1 induced versus insulin induced phosphorylation” value in the assay with insulin receptor/IGF-1R is on record as “Some selectivity for inhibiting IGF-1 induced tyrosine phosphorylation as compared to insulin induced phosphorylation”. Further, in the assay with SW480 cells (first value of the cell: concentration needed to blunt the effect of 10 nM IGF-1, cells in words only = effect as reported, 48 hours), the “IC50 in SW480 (M) in presence of IGF-1/alone: in presence of IGF-1” value is on record as “Antagonistic”. Also, the “inhibition of basal growth of SW480, doses” value in the assay with SW480 cells (without IGF-1) was more than 100 nM.
In turn, `CC(C)C[C@H](NC(=O)[C@H](CCC(=O)O)NC(=O)[C@H](CCC(=O)O)NC(=O)[C@H](CS)NC(=O)[C@H](CO)NC(=O)[C@H](Cc1ccc(O)cc1)NC(=O)[C@H](Cc1ccccc1)NC(=O)[C@@H](N)CO)C(=O)N[C@H](C(=O)N[C@@H](CCC(N)=O)C(=O)NCC(=O)N1CCC[C@H]1C(=O)N[C@@H](C)C(=O)N[C@@H](CCC(=O)O)C(=O)N[C@@H](CCCCN)C(=O)N[C@@H](CO)C(=O)N[C@@H](CCCCN)C(=O)NCC(=O)N[C@@H](CCC(N)=O)C(=O)N[C@@H](Cc1c[nH]c2ccccc12)C(=O)N[C@@H](CCC(=O)O)C(=O)NCC(=O)N[C@@H](CS)C(=O)N[C@@H](CCCCN)C(=O)N[C@@H](CCCCN)C(=O)O)C(C)C` [Peptide F370] (H-SFYSCEELVQGPAEKSKGQWEGCKK-OH) returned an equilibrium dissociation constant (Kd) at HIGF-1R of 23000 nM.
